Measurements as given in patent publication US8663669B2, “Pesticide treatment of soils or substrates with sulphur compounds” (Arkema France, priority 2002, dated 2014).

Tests used:
[1] = test system: young tomato plants (13 cm, 3 leaves, JUMBO hybrid); test: Phytotoxicity on young tomato plants; format: in vivo
Procedure: (§1) For both types of crop, 4 treatments were performed on 20 plants: • untreated control • 360 kg/ha of DMDS • 540 kg/ha of DMDS • 720 kg/ha of DMDS
(§2) Five days after the treatment, the young plants are transplanted into pots 20 cm in diameter and 35 cm in height.
(§3) The observations relating to the number of leaves per plant and the visual state of the plants are carried out 15 and 41 days after the transplantation: […]

[2] = test system: lettuce (variety Sprintia); test: Phytotoxicity on lettuce, in a greenhouse; format: in vivo; conditions: 150 kg/ha (formulation A)
Text: Absence of phytotoxicity on lettuce of DMDS, applied at 150 kg/ha, in the open, in a greenhouse.
Lettuce variety: Sprintia
Treatment: DMDS is applied in the form of formulation A with the aid of a jet sprayer, and then incorporated over a depth of about 5 cm with a rotary hoe. The soil is then covered with a black polyethylene film.
Planting: 7 days after the treatment, at the rate of 160 000 plants/ha
Harvesting: 2 months and 20 days after planting.

[3] = test system: young cucumber plants (9 cm, 2 leaves, ARIS hybrid); test: Phytotoxicity on young cucumber plants; format: in vivo
Procedure: as §1, §2, §3

[4] = test system: Rhizoctonia solani; test: Fungicidal efficacy by gassing, colonized barley grains; format: cell-based; set-up: Vitality score Nm (over 11 days): scale not given here; Reduction in viability RV / Reduction in vitality score RNm: unit not given here; conditions: for Reduction in viability RV / Reduction in vitality score RNm: compared with the control
Procedure: These four organisms are the following:
Rhizoctonia solani: a very important group of polyphagous pathogens in the genus Rhizoctonia and which attack very many market garden crops including sweet pepper and lettuce.
• Sclerotinia sclerotiorum: sclerotia • Sclerotium rolfsii: sclerotia • Rhizoctonia solani: colonized barley grains (mycelium and sclerotia) • Phytophthora cactorum: colonized millet grains (mycelium, sporangia and oospores) Preparation of the Fungi (24 h Before the Gassing Operation) 1. Preparation of the sclerotia of Sclerotinia sclerotiorum and of Sclerotium rolfsii: The fungi are cultured on malt agar medium until the sclerotia are obtained. The sclerotia are collected in a sterile manner and stored dry in empty Petri dishes until they are used. The sclerotia used for the trial are over 3 months old and are perfectly dormant. 2. Preparation of Phytophthora cactorum and of Rhizoctonia solani: The millet and barley used for the multiplication of the two fungi are moistened with ultrapure water by immersing for 24 hours. The grains are then slightly drained and then distributed into flasks and autoclaved (3 autoclavings at 110° C. for 20 minutes, 3 times at 24 hour intervals). Fragments of fungal culture are introduced into the flasks which are then incubated at 22° C.±2° C. (white light 18 h) until homogeneous colonization is obtained. The grains are then removed from the flasks in a sterile manner, dried in the sterile stream of a safety cabinet and then stored in the dry state until they are used. Conditions for Gassing and for Desorption
All the batches of fungi to be treated are placed for a few hours at the trial temperature (20° C.). Between 35 and 300 units of fungi or “propagules” (grains or sclerotia) are subjected to gassing during each trial.
Each fumigation chamber comprising to one or more species of fungi corresponds to a glass round-bottomed flask which is impervious to the gas and has a volume of 11 litres. Each round-bottomed flask is equipped with branch connections, one at the bottom for introducing the liquid DMDS, one at the top for collecting the air sample with a syringe.
Before introducing the gas, a partial vacuum (−500 mbar) is established in the round-bottomed flask with a vacuum pump. This makes it possible, on the one hand, to avoid the phenomenon of excess pressure due to the expansibility of DMDS in the round-bottomed flask and, on the other hand, to promote better homogeneity of the air-gas mixture in the first few seconds which follow injection. The DMDS (weighed accurately to the mg) is injected with a syringe, in liquid form, through the bottom branch connection, that is to say under the screen placed at half height of the round-bottomed flask and supporting the batches of fungi. After introducing the product, the internal pressure of the round-bottomed flask is re-established at atmospheric pressure. A magnetic stirrer operates during the entire duration of the treatment in order to properly homogenize the air-gas mixture.
At the end of the gassing, the cover for the round-bottomed flask is removed. One minute after this operation, the batches of fungi gassed are taken out and left in the open air for 15 minutes for desorption of the DMDS. They are then transferred into a Petri dish, the latter remaining open for 5 minutes to allow perfect desorption of the gas. […]

[5] = 360, 540, 720 kg/ha, 15 and 41 days after transplantation
[6] = 360 kg/ha DMDS (formulation A), after 15 days
[7] = 360 kg/ha DMDS (formulation A), after 41 days
[8] = 540 kg/ha DMDS (formulation A), after 15 days
[9] = 540 kg/ha DMDS (formulation A), after 41 days
[10] = 720 kg/ha DMDS (formulation A), after 15 days
[11] = 720 kg/ha DMDS (formulation A), after 41 days
[12] = regardless of the concentration tested (360-720 kg/ha)
[13] = CT 1 050 g·h/m^3 (C 15.91 g/m^3, T 66 h)
[14] = CT 1 402 g·h/m^3 (C 21.24 g/m^3, T 66 h)
[15] = CT 1 450 g·h/m^3 (C 30.96 g/m^3, T 48 h)
[16] = CT 1 899 g·h/m^3 (C 28.77 g/m^3, T 66 h)
[17] = CT 1 981 g·h/m^3 (C 30.02 g/m^3, T 66 h)
[18] = CT 2 460 g·h/m^3 (C 51.25 g/m^3, T 48 h)
[19] = CT 2 471 g·h/m^3 (C 37.44 g/m^3, T 66 h)
[20] = CT 2 837 g·h/m^3 (C 42.98 g/m^3, T 66 h)
[21] = CT 2 974 g·h/m^3 (C 45.06 g/m^3, T 66 h)
[22] = CT 3 169 g·h/m^3 (C 48.02 g/m^3, T 66 h)
[23] = CT 3 467 g·h/m^3 (C 52.53 g/m^3, T 66 h)
[24] = CT 419 g·h/m^3 (C 17.46 g/m^3, T 24 h)
[25] = CT 625 g·h/m^3 (C 26.04 g/m^3, T 24 h)
[26] = CT 703 g·h/m^3 (C 29.29 g/m^3, T 24 h)
[27] = CT 907 g·h/m^3 (C 37.79 g/m^3, T 24 h)

SMILES: CSSC [DMDS, dimethyl disulphide]
- Visual symptom of phytotoxicity [1, 5]: no visual symptom of phytotoxicity
- Average number of leaves per plant [1, 6]: 5.3
- Average number of leaves per plant [1, 7]: 9.6
- Average number of leaves per plant [1, 8]: 5.3
- Average number of leaves per plant [1, 9]: 9.4
- Average number of leaves per plant [1, 10]: 5.7
- Average number of leaves per plant [1, 11]: 9.8
- Difference in number of leaves between untreated control and treated plants [1, 12]: no significant difference
- Visual observations on the field: sign of phytotoxicity ([2]; 1 and 2 months after planting): no sign of phytotoxicity
- Average weight of the lettuce at harvest ([2]; harvest 2 months and 20 days after planting, control 490 g): 505 g
- Visual symptom of phytotoxicity [3, 5]: no visual symptom of phytotoxicity
- Average number of leaves per plant [3, 6]: 5.3
- Average number of leaves per plant [3, 7]: 9.8
- Average number of leaves per plant [3, 8]: 5.7
- Average number of leaves per plant [3, 9]: 9.7
- Average number of leaves per plant [3, 10]: 5.7
- Average number of leaves per plant [3, 11]: 9.9
- Difference in number of leaves between untreated control and treated plants [3, 12]: no significant difference
- Viability V [4, 13]: 89.2%
- Vitality score Nm (over 11 days) [4, 13]: 7.0
- Reduction in viability RV [4, 13]: 10.8
- Reduction in vitality score RNm [4, 13]: 22.2
- Viability V [4, 14]: 96.9%
- Vitality score Nm (over 11 days) [4, 14]: 7.6
- Reduction in viability RV [4, 14]: 3.1
- Reduction in vitality score RNm [4, 14]: 15.0
- Viability V [4, 15]: 98.5%
- Vitality score Nm (over 11 days) [4, 15]: 4.4
- Reduction in viability RV [4, 15]: 1.5
- Reduction in vitality score RNm [4, 15]: 51.3
- Viability V [4, 16]: 84.3%
- Vitality score Nm (over 11 days) [4, 16]: 6.0
- Reduction in viability RV [4, 16]: 15.7
- Reduction in vitality score RNm [4, 16]: 33.2
- Viability V [4, 17]: 94.7%
- Vitality score Nm (over 11 days) [4, 17]: 7.4
- Reduction in viability RV [4, 17]: 5.3
- Reduction in vitality score RNm [4, 17]: 17.2
- Viability V [4, 18]: 11.0%
- Vitality score Nm (over 11 days) [4, 18]: 0.3
- Reduction in viability RV [4, 18]: 89.0
- Reduction in vitality score RNm [4, 18]: 96.2
- Viability V [4, 19]: 24.1%
- Vitality score Nm (over 11 days) [4, 19]: 0.6
- Reduction in viability RV [4, 19]: 75.9
- Reduction in vitality score RNm [4, 19]: 92.0
- Viability V [4, 20]: 2.2%
- Vitality score Nm (over 11 days) [4, 20]: 0.1
- Reduction in viability RV [4, 20]: 97.8
- Reduction in vitality score RNm [4, 20]: 98.4
- Viability V [4, 21]: 9.4%
- Vitality score Nm (over 11 days) [4, 21]: 0.1
- Reduction in viability RV [4, 21]: 90.6
- Reduction in vitality score RNm [4, 21]: 98.4
- Viability V [4, 22]: 1.2%
- Vitality score Nm (over 11 days) [4, 22]: 0.05
- Reduction in viability RV [4, 22]: 98.8
- Reduction in vitality score RNm [4, 22]: 99.3
- Viability V [4, 23]: 0%
- Vitality score Nm (over 11 days) [4, 23]: 0
- Reduction in viability RV [4, 23]: 100
- Reduction in vitality score RNm [4, 23]: 100
- Viability V [4, 24]: 100%
- Vitality score Nm (over 11 days) [4, 24]: 9.0
- Reduction in viability RV [4, 24]: 0
- Reduction in vitality score RNm [4, 24]: 0
- Viability V [4, 25]: 100%
- Vitality score Nm (over 11 days) [4, 25]: 8.7
- Reduction in viability RV [4, 25]: 0
- Reduction in vitality score RNm [4, 25]: 3.1
- Viability V [4, 26]: 100%
- Vitality score Nm (over 11 days) [4, 26]: 8.3
- Reduction in viability RV [4, 26]: 0
- Reduction in vitality score RNm [4, 26]: 7.3
- Viability V [4, 27]: 100%
- Vitality score Nm (over 11 days) [4, 27]: 7.1
- Reduction in viability RV [4, 27]: 0
- Reduction in vitality score RNm [4, 27]: 21.6
